Test results: patent US5582832A, “Compositions for topical application to skin” (priority 1995, dated 1996)

Experiments:
Format in all cases: cell-based, human
[1] = tested on: 1,25D degradation (vitamin D metabolism in keratinocytes); test: Vitamin D metabolism in keratinocytes: 1,25D degradation; settings: for blocking of 1,25D degradation (in words) / 1,25D degradation (%): 1 uM; for blocking of 1,25D degradation (in words): 20 hours (Table 2); for % degradation (1,25D): Table 1; for 1,25D degradation (%): Table 2, 20 hour incubation, mean of duplicate (range); for 1,25D (% degradation): Table 3, 10 uM; for inhibition of 1,25D metabolism (in words): results of Table 1
Experimental: (§1) 1. Normal human keratinocytes isolated from neonatal foreskins by trypsin treatment were grown in DME medium/10% fetal calf serum in the presence of irradiated 3T3 mouse fibroblasts for establishing dividing keratinocyte colonies. Keratinocytes were grown under the above condition until their third passage.
(§2) 80% confluent keratinocytes were incubated with 0.05 uCi of ^3 H-25D or ^3 H-1,25D for two hours or 20 hours in the presence of 1-100 uM of the different compounds. Reaction was stopped by addition of methanol and the cells and medium were extracted using chloroform:methanol. The chloroform layer was separated, dried and spotted on TLC plates. […] The amount of radioactivity in each lane was quantitated using the BioScan radioactive plate reader. The amount of radioactivity remaining in the peak area of 25D and 1,25D were calculated as % of control. The % remaining was subtracted from 100 to get the % degradation of the metabolites.
(§3) The data are expressed as mean of % degradation of 25D or 1,25D. The range is also given in parenthesis.

keratinocytes = test: Rate of DNA synthesis (3H-thymidine incorporation) in keratinocytes; settings: for DNA synthesis, % of control (100 nM 1,25D + 5 uM ceramide Formula A) / DNA synthesis, % of control (azole, only 100 nM 1,25D): Table 4; for DNA synthesis, % of control (100 nM 1,25D + 5 uM ceramide Formula A): 10 uM azole (or no azole) + 100 nM 1,25D + 5 uM ceramide Formula A; for DNA synthesis, % of control (100 nM 1,25D + 5 uM ceramide Formula A) / DNA synthesis, % of control (azole, only 100 nM 1,25D) / DNA synthesis: mean + SD; for DNA synthesis, % of control (100 nM 1,25D + 5 uM ceramide Formula A) / keratinocyte DNA synthesis, % of the corresponding controls (10 uM Econazole) / keratinocyte DNA synthesis, % of the corresponding controls (no azole): * = synergistic effect; for DNA synthesis, % of control (azole, only 100 nM 1,25D): 10 uM azole, no ceramide; for DNA synthesis, % of control (azole, only 100 nM 1,25D) / DNA synthesis / DNA synthesis (% control) / keratinocyte DNA synthesis, % of the corresponding controls (1 uM Econazole) / keratinocyte DNA synthesis, % of the corresponding controls (10 uM Econazole) / keratinocyte DNA synthesis, % of the corresponding controls (no azole): 100 nM 1,25D; for keratinocyte DNA synthesis, % of the corresponding controls (1 uM Econazole) / keratinocyte DNA synthesis, % of the corresponding controls (10 uM Econazole) / keratinocyte DNA synthesis, % of the corresponding controls (no azole): Table 5; for keratinocyte DNA synthesis, % of the corresponding controls (1 uM Econazole): 1 uM ceramide + 1 uM Econazole; for keratinocyte DNA synthesis, % of the corresponding controls (10 uM Econazole): 1 uM ceramide + 10 uM Econazole; for keratinocyte DNA synthesis, % of the corresponding controls (no azole): 1 uM ceramide
Experimental: as §1
2. For the experiments, third passage keratinocytes were plated into a serum-free keratinocyte growth medium (KSFM; obtained from Life Technologies, Grand Island, N.Y.) containing 0.09 mM calcium. 20,000 to 30,000 cells were plated into each well of 24 well cell culture plates and grown for 5 days, until the cells reach about 80% confluence.
3. Medium was changed to fresh medium and the various test materials were added to the medium from an ethanolic stock solution (10:00 AM). The final ethanol concentration in the cultures was kept below 0.2%. Control cultures received no tested material but were dosed with 0.2% ethanol. Each compound or combination was tested in three separate wells. By 4:00 PM, 1 uCi of ^3 H-thymidine (Amersham Corp., Sp activity 40 Ci/mmol) was added to the 1 ml medium in each well. The cells were incubated overnight and […] (10:00 AM next day) the amount of ^3 -thymidine associated with the cellular DNA of keratinocytes was assessed as described below.
4. The medium was aspirated, and the wells washed with 1 ml phosphate-buffered saline. The DNA and proteins of the cells in the plate were then precipitated by adding 1 ml of ice-cold 10% trichloroacetic acid (TCA). The plates were left on ice for 30 minutes to complete the precipitation process. TCA was then aspirated and each well was then washed four times with 5% TCA. The plates were then dried on a filter pad and the cells in the wells were dissolved in 0.5 ml of 0.1N sodium hydroxide. The sodium hydroxide was then neutralized using 0.1N hydrochloric acid and the solution (1 ml total volume) was then transferred to a scintillation vial. 50 μl samples from each vial were used for protein assay using BCA protein assay reagent obtained from Pierce Chemical Company. 8 ml of a scintillation fluid (Ecolume) was added to the rest of the solution in the vial, and the vials were counted in a scintillation counter to determine the amount of radioactivity in each vial. The DNA synthesis rate was then calculated as cpm ^3 H thymidine incorporated into total cellular DNA/microgram of cell protein for each individual well. Mean and standard deviation for each group was also calculated.
Rationale for using 1,25D is that in in vivo situation, these azoles will inhibit the endogenous degradation of the 1,25D which is obtained from the circulation. Azoles will act in keratinocytes to increase the endogenous levels of 1,25D within cells. Keratinocytes (70% confluent) were incubated with 10 uM of the different azoles in the presence of 100 nM 1,25D. One of the groups was treated with 5 uM of ceramide of Formula A in the medium. After four hours, all the wells were treated with 1 uCi ^3 H-thymidine and the rate of DNA synthesis was estimated as described in the methods.
Keratinocytes were incubated with 1 or 10 uM of Econazole in the presence of 1 uM of the different ceramide analogues and 100 nM 1,25D in the medium. Thymidine incorporation was measured with an overnight incubation as described in Example 2.

[2] = tested on: 25D degradation (vitamin D metabolism in keratinocytes); test: Vitamin D metabolism in keratinocytes: 25D degradation; settings: for blocking of 25D degradation (in words) / 25D degradation (%): 1 uM; for blocking of 25D degradation (in words): 20 hours (Table 2); for % degradation (25D): Table 1; for 25D degradation (%): Table 2, 20 hour incubation, mean of duplicate (range); for 25D (% degradation): Table 3, 10 uM; for inhibition of 25D metabolism (in words): results of Table 1
Experimental: as §1, §2, §3

[3] = Tables 4A-4F, azole 10 uM, ceramide Formula A 5 uM
[4] = Tables 4A-4F, azole 10 uM, 1440 min
[5] = Tables 5A-5I, Econazole 10 uM, ceramide analogue 1 uM

For Clc1ccccc1C(c1ccccc1)(c1ccccc1)n1ccnc1 [Clotrimazole], the “blocking of 1,25D degradation (in words)” value [1] was “very effective”, the “blocking of 1,25D metabolism (in words)” value ([1]; 2 hours) was “ineffective” and the “blocking of 1,25D metabolism (in words)” value ([1]; 20 hours) was “very effective”. The “% degradation (1,25D)” value ([1]; 10 uM compound) was 2%, the “1,25D degradation (%)” value [1] was 29.5 (21.8-37.2) % and the “1,25D (% degradation)” value ([1]; 2 hours) was 77%. For the same molecule, the “1,25D (% degradation)” value ([1]; 20 hours) was 2%, the “inhibition of 1,25D metabolism (in words)” value [1] was “most potent” and the “DNA synthesis, % of control (100 nM 1,25D + 5 uM ceramide Formula A)” value (keratinocytes; 1440 min) was 19.5 + 0.77 % of control. For the same molecule, the “DNA synthesis, % of control (azole, only 100 nM 1,25D)” value (keratinocytes; 1440 min) was 35.2 + 6.5 % of control, the DNA synthesis (keratinocytes; [3]) was 51610 + 6735 cpm 3H thymidine incorporated and the “DNA synthesis (% control)” value (keratinocytes; [4]) was 35.2 % control. The “blocking of 25D degradation (in words)” value [2] was “very effective”, the “blocking of 25D metabolism (in words)” value ([2]; 2 hours) was “ineffective” and the “blocking of 25D metabolism (in words)” value ([2]; 20 hours) was “very effective”. For the same molecule, the “% degradation (25D)” value ([2]; 10 uM compound) was 5%, the “25D degradation (%)” value [2] was 47.4 (42.6-52.2) % and the “25D (% degradation)” value ([2]; 2 hours) was 79%. For the same molecule, the “25D (% degradation)” value ([2]; 20 hours) was 5% and the “inhibition of 25D metabolism (in words)” value [2] was “most potent”.

For CCCCCCCCCCCCCCCCN(CC(O)CO)C(C)=O (stereo not shown) [Formula F], the “keratinocyte DNA synthesis, % of the corresponding controls (1 uM Econazole)” value (shortened to “keratinocyte DNA synthesis, % … (1 uM Econazole)”) (keratinocytes) was 84.3 + 1.96%, the “keratinocyte DNA synthesis, % of the corresponding controls (10 uM Econazole)” value (keratinocytes) was 40.9 + 9.0% and the “keratinocyte DNA synthesis, % of the corresponding controls (no azole)” value (from here on “keratinocyte DNA synthesis, % … (no azole)”) (keratinocytes) was 90.3 ± 21.4%. The “DNA synthesis (% control)” value (keratinocytes; [5]) was 90.3 % control and the DNA synthesis (keratinocytes; [5]) was 27051 + 7858 cpm 3H thymidine incorporated.

With CCCCCCCCCCCCC/C=C/C(O)C(CO)NC(C)=O (stereo not shown) [Formula A] the “DNA synthesis, % of control (100 nM 1,25D + 5 uM ceramide Formula A)” value (keratinocytes; 1440 min) was 81.1 + 16.5 % of control, the “keratinocyte DNA synthesis, % … (1 uM Econazole)” value (keratinocytes) was 75.9 + 23.3% and the “keratinocyte DNA synthesis, % of the corresponding controls (10 uM Econazole)” value (keratinocytes) was 38.2 + 13.9%. For the same molecule, the “keratinocyte DNA synthesis, % … (no azole)” value (keratinocytes) was 97 + 32%, the “DNA synthesis (% control)” value (keratinocytes; Tables 4A-4F, azole 10 uM, ceramide Formula A 5 uM, 1440 min) was 74.14 % control and the DNA synthesis (keratinocytes; [3]) was 108753 + 24719 cpm 3H thymidine incorporated. The “DNA synthesis (% control)” value (keratinocytes; [5]) was 97.7 % control and the DNA synthesis (keratinocytes; [5]) was 29272 + 11126 cpm 3H thymidine incorporated.

With Clc1ccc(COC(Cn2ccnc2)c2ccc(Cl)cc2Cl)cc1 (stereo not shown) [Econazole] the “blocking of 1,25D degradation (in words)” value [1] was “very effective”, the “blocking of 1,25D metabolism (in words)” value ([1]; 2 hours) was “ineffective” and the “blocking of 1,25D metabolism (in words)” value ([1]; 20 hours) was “very effective”. The “% degradation (1,25D)” value ([1]; 10 uM compound) was 2%, the “1,25D degradation (%)” value [1] was 46.8 (45.1-48.6) % and the “1,25D (% degradation)” value ([1]; 2 hours) was 78%. For the same molecule, the “1,25D (% degradation)” value ([1]; 20 hours) was 2%, the “inhibition of 1,25D metabolism (in words)” value [1] was “most potent” and the “DNA synthesis, % of control (100 nM 1,25D + 5 uM ceramide Formula A)” value (keratinocytes; 1440 min) was 22.5 + 2.4 % of control. For the same molecule, the “DNA synthesis, % of control (azole, only 100 nM 1,25D)” value (keratinocytes; 1440 min) was 64.5 + 3.9 % of control, the DNA synthesis (keratinocytes; [3]) was 94719 + 5732 cpm 3H thymidine incorporated and the “DNA synthesis (% control)” value (keratinocytes; [4]) was 64.57 % control. The “DNA synthesis (% control)” value (keratinocytes; [5]) was 50.5 % control, the DNA synthesis (keratinocytes; [5]) was 15147 + 4337 cpm 3H thymidine incorporated and the “blocking of 25D degradation (in words)” value [2] was “very effective”. For the same molecule, the “blocking of 25D metabolism (in words)” value ([2]; 2 hours) was “ineffective”, the “blocking of 25D metabolism (in words)” value ([2]; 20 hours) was “very effective” and the “% degradation (25D)” value ([2]; 10 uM compound) was 5%. The “25D degradation (%)” value [2] was 54.1 (44.3-63.9) %, the “25D (% degradation)” value ([2]; 2 hours) was 92% and the “25D (% degradation)” value ([2]; 20 hours) was 5%. For the same molecule, the “inhibition of 25D metabolism (in words)” value [2] was “most potent”.

With CCCCCCCCCCCCCCCCOCC(O)CN(CCO)C(C)=O (stereo not shown) [Formula E] the “keratinocyte DNA synthesis, % … (1 uM Econazole)” value (keratinocytes) was 99.8 + 19.1%, the “keratinocyte DNA synthesis, % of the corresponding controls (10 uM Econazole)” value (keratinocytes) was 20.5 + 12.9% and the “keratinocyte DNA synthesis, % … (no azole)” value (keratinocytes) was 104.3 ± 17.7%. The “DNA synthesis (% control)” value (keratinocytes; [5]) was 104.4 % control and the DNA synthesis (keratinocytes; [5]) was 31267 + 6143 cpm 3H thymidine incorporated.

For Nc1nc2ncc(CNc3ccc(C(=O)N[C@@H](CCC(=O)O)C(=O)O)cc3)nc2c(=O)[nH]1 [folic acid], the “% degradation (1,25D)” value ([1]; 100 uM compound) was 95% and the “% degradation (25D)” value ([2]; 100 uM compound) was 78%.

With Cc1ncc(C[n+]2csc(CCO)c2C)c(N)n1 [Thiamine] the “% degradation (1,25D)” value ([1]; 100 uM compound) was 77% and the “% degradation (25D)” value ([2]; 100 uM compound) was 85%.
